Laboratory results as given in article PMC7809356, “Structural characterization of a GNAT family acetyltransferase from Elizabethkingia anophelis bound to acetyl-CoA reveals a new dimeric interface” (Scientific Reports, 2021).

Assays:
[1] = target: T1, GNAT family acetyltransferase from Elizabethkingia anophelis (BAY10_3400) (Elizabethkingia anophelis, UniProt Z9UBX7MZA9); test: X-ray crystallography, […] A; type: binding; conditions: co-crystallised with 5 mM acetyl-CoA, 100 mM Tris/HCl pH 5.5, 2 M ammonium sulfate, 285 K; active site
T1 construct: full length, non-cleavable N-terminal His6-tag (vector BG1861), expressed in E. coli Rosetta BL21(DE3)R3; all residues modelled except N-terminal Met; monomer and dimer in SEC, crystal from dimer peak

[2] = target: GNAT family acetyltransferase from Elizabethkingia anophelis (Elizabethkingia anophelis); test: SEC; preparative HiLoad 26/60 Superdex 75 in 25 mM HEPES, 500 mM NaCl, 5% glycerol, 2 mM DTT, 0.025% azide pH 7.0; calibrated with conalbumin, ovalbumin and ribonuclease A; molecular weights from the elution volume

CC(=O)SCCNC(=O)CCNC(=O)[C@H](O)C(C)(C)COP(=O)(O)OP(=O)(O)OC[C@H]1O[C@@H](n2cnc3c(N)ncnc32)[C@H](O)[C@@H]1OP(=O)(O)O [acetyl-CoA]
X-ray crystallography, 1.85 A [1]: Our structure contained a well-ordered acetyl-CoA molecule bound in the active site

GNAT family acetyltransferase from Elizabethkingia anophelis (enzyme)
stoichiometry N [2]: 2
